The source of these data is patent US11787772B2, “Carboxylic diarythiazepineamines as mixed mu- and delta-opioid receptor agonists” (THE TRUSTEES OF COLUMBIA UNIVERSITY IN THE CITY OF NEW YORK, priority 2017, dated 2023).

The target of data set [1] is T1, human mu opioid receptor (MOR) (Homo sapiens, UniProt P35372).
T1 construct: expressed in transfected cells; host or cells: HEK-293T
Kind of data set: BRET assay measuring G protein activation, agonist activity at human MOR. Type of data set: cell-based. On the procedure: The diarylthiazepinamine carboxylic acids (9) were tested for agonist activity at the human mu opioid receptor (MOR) and delta opioid receptor (DOR) using bioluminescence resonance energy transfer (BRET) assays measuring G protein activation as previously described (Table 1) (Rives, M.-L. et al. 2012; Negri, A. et al. 2013).
Human MOR cDNA was transfected alongside GααB with RLuc8 inserted at position 91 (GααB—RLuc8), Gβ1 (β1), and Gγ2 fused to the full-length mVenus at its N terminus (mVenus-γ2) into HEK-293T cells (5×10^6 cells/plate) in 10-cm dishes using PEI (Polysciences Inc.; Warrington, PA) in a 1:1 ratio diluted in Opti-MEM (Life Technologies Corp.; Grand Island, NY) to assay for G protein activation as described previously (Rives, M.-L. et al. 2012; Negri, A. et al. 2013). Cells were maintained in Dulbecco's Modified Eagle Medium (high glucose #11965; Life Technologies) supplemented with 10% FBS (Premium Select, Atlanta Biologicals; Atlanta, GA) and 100 U/mL penicillin and 100 μg/mL streptomycin (#15140, Life Technologies). After 24 hours the media was changed, and the experiment was performed 24 hours later (48 hours after transfection).
Transfected cells were dissociated and re-suspended in phosphate-buffered saline (PBS). Approximately 200,000 cells/well were added to a black-framed, white well 96-well plate (#60050; Perkin Elmer; Waltham, MA). The microplate was centrifuged and the cells were re-suspended in PBS. Then 5 μM of the luciferase substrate coelenterazine H was added to each well for 5 minutes. Following coelenterazine H addition, ligands were added and the BRET signal was measured at 5 minutes on a PHERAstar FS plate reader. Quantification of the BRET signal required calculating the ratio of the light emitted by the energy acceptor, mVenus (510-540 nm), over the light emitted by the energy donor, RLuc8 (485 nm). […] Dose response curves were fit using a three-parameter logistics equation in GraphPad Prism 6.
The additional diarylthiazepinamine carboxylic acids (9i, 9j, 9k, and 91) were tested for agonist activity at the human mu opioid receptor (MOR) using bioluminescence resonance energy transfer (BRET) assays measuring G protein activation (Table 2) as previously described (Rives, M.-L. et al. 2012; Negri, A. et al. 2013; Example 2 of the present application).
Background: BRET reads energy transfer from a luciferase to a nearby fluorophore.

A short description of data set [2]: Solubility determination (Method B), neutral water. Format: physicochemical. Conditions: for solubility at 2 h: distilled water, thermodynamic from solid, neutral water, 20° C., Method B (2 h orbital shaker), read-out: Aqueous Solubility (mg/mL @ 20° C.). How it is done:
A quantity of the appropriate compound sufficient to saturate the resulting solution was added to distilled water (0.50 mL) and the mixture agitated on an orbital shaker for 2 h at room temperature (20° C.). The mixture was then centrifuged for 5 min. at 21,000×g and the supernatant was carefully removed by syringe and passed through a […] syringe filter. An aliquot (300 μL) of the filtered supernatant was concentrated in vacuo and the mass of the residual solids determined in order to calculate the solubility.

The next data set can be described thus: physchem. The conditions noted are these: 25 °C, thermodynamic from solid. How it is done: Test compounds (4 mg) were added to 200 μL of one of the tested aqueous solutions (hereinafter—buffer): 100 mM aqueous HCl (pH 1) or 100 mM Na-phosphate buffer (pH 7). The obtained suspensions/solutions with the theoretical concentration of 20 mg/mL were further allowed to equilibrate at 25° C. on a thermostatic orbital shaker for 24 hours and then centrifuged at 6000 rpm for 4 minutes and filtered through HTS filter plates using a vacuum manifold. In parallel, compound dilutions in 50% acetonitrile/HCl and 30% acetonitrile/Na-phosphate buffer mixes were prepared to theoretical concentrations of 0 mg/mL (blank), 0.1 mg/mL, 0.2 mg/mL, and 0.4 mg/mL in duplicates to generate calibration curves falling within the optimum UV absorption range. The filtrates of test compounds were diluted 100-fold with acetonitrile-buffer mixtures before measuring. The filtered supernatant test samples were transferred to 96-well plates and measured for absorbance in the 200-550 nm range with 5 nm step increment. The concentrations of compounds in supernatants were calculated using the measured absorbance and the previously determined calibration curve. Proper absorbance wavelengths for calculations were selected for each compound manually based on absorbance maxima (absolute absorbance unit values for the minimum and maximum concentration points within 0-2.5 OD range).

The subject of another data set is male C57BL/6 mice. The data set is described as follows: Analgesic activity in hot plate assay. Format: in vivo, mouse. How it is done: Male C57BL/6 mice were timed for latency to jump on a hot-plate apparatus set to 55° C., using a 30 s cutoff to prevent tissue damage. Following a baseline test, animals were injected subcutaneously (s.c.) with escalating doses of drug and tested at […] (time of maximal effect). Dose-response curves were fit via nonlinear regression using GraphPad Prism (La Jolla, CA).

T1 sequence (P35372 whole entry): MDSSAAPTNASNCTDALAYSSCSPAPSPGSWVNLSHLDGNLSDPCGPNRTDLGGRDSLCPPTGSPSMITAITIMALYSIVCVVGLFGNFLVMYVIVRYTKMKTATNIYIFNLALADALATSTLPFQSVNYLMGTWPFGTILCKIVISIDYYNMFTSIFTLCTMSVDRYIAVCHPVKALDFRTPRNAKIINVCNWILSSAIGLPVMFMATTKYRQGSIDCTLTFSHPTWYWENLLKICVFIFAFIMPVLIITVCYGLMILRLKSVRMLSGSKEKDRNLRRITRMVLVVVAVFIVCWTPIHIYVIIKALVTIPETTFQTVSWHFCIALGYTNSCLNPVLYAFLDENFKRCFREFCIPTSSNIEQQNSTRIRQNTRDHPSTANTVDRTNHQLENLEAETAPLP

Consider `CN1c2ccccc2C(NCCCCCCC(=O)O)c2cc(F)c(I)cc2S1(=O)=O.Cl` (centres unmarked) [Compound 9k, 7-((2-fluoro-3-iodo-6-methyl-5,5-dioxido-6,11-dihydrodibenzo [c,f][1,2]thiazepin-11-yl)amino) heptanoic acid hydrochloride salt], for which a half-maximal response in data set [1] (EC50) required 4.6 nM. Besides, in data set [1] (dihalo-substituted core), the “MOR potency relative to analogs lacking substitution at position 2” value is given as “equipotent or more potent”. Moreover, in data set [2], the solubility at 2 h is 5.7 mg/mL. Besides, in data set [2] (neutral unbuffered water), the “Solubility relative to monohalo counterpart iodotianeptine” value is 2-3 fold. Moreover, the solubility was 2700 µg/mL in the data set “physchem” (pH 1, simulated gastric fluid) and 390 µg/mL in the data set “physchem” (pH 7, aqueous buffer). Moreover, in the data set with male C57BL/6 mice (Mus musculus, sc, hot plate 55° C., male C57BL/6 mice, tested at 15 post-injection), the 50% effect level (ED50) was put at a dose of 1.7 mg/kg. The “Analgesic activity in the mouse hot plate assay” value in the data set on male C57BL/6 mice (much higher potency than tianeptine) is given as “potent analgesics”.
On to `CN1c2ccccc2C(NCCCCCCC(=O)O)c2ccc(I)cc2S1(=O)=O.Cl` (centres unmarked) [iodotianeptine, reference compound], for which the solubility at 2 h in data set [2] was 2.3 mg/mL. Also, the solubility in “physchem” (pH 1, simulated gastric fluid) was under 100 µg/mL; in “physchem” (pH 7, aqueous buffer), 150 µg/mL.

A word on the EC50: it is the concentration giving half of the maximal effect. Read a high EC50 as weaker potency. As usually defined, the ED50 is the dose that gives a 50% effect, or the effect in half of the subjects. High values mean a need for a large dose, low ones an effect at a small dose.
